These results are taken from US12391671B2, “Allosteric EGFR inhibitors and methods of use thereof” (Dana-Farber Cancer Institute, Inc., priority 2019, dated 2025).

Counter-ions that a name gives are not always drawn. Like-named read-outs stand apart in the source and are kept apart here.

The target in one assay is EGFR L858R (Homo sapiens (Human), UniProt P00533, L858R). The assay is described as follows: HTRF-based EGFR biochemical assay (L858R). As to conditions: 100 μM ATP, enzyme 0.1 nM. On the procedure:
(§1) Example 25: HTRF-Based EGFR Biochemical Assays
(§2) EGFR biochemical activity measurements were carried out using the homogeneous time-resolved fluorescence (HTRF) assay (Cisbio), inhibitors and DMSO normalizations were first dispensed to empty black low-volume 384-well plates (Corning) with 0300 digital liquid dispenser (HP). All reactions were carried out at room temperature and solutions were added to plates with a Multidrop Combi Reagent Dispenser (ThermoFisher). The reaction mixture (10 μL final volume) contained 1 μM tyrosine kinase peptide-biotin substrate and mutant EGFR in a reaction buffer (50 mM HEPES pH 7.0, 5 mM MgCl2, 1 mM MnCl2, 0.01% BSA, 2 mM TCEP, 0.1 mM NaVO4). Enzyme concentrations were adjusted to accommodate varying kinase activities (L858R 0.1 nM, L858R/T790M 0.02 nM). Enzyme reaction solution (2× concentrations, 5 μL) was added to 384-well plates containing compounds and incubated for 30 mins. Enzyme reactions were initiated with the addition of 5 μL of ATP to a final concentration of 100 μM and reacted for 20 mins. Reactions were quenched with the addition of 10 μL of phospho-tyrosine antibody-Europium(III) cryptate (1-to-180 volume ratio) and Streptavidin-XL665 (46.7 nM) in EDTA-containing detection buffer, then incubated at room temperature for 1 hour, and read with a PHERAstar plate reader (excitation=337 nm, emission=620 nm and 665 nm).

A further assay addresses EGFR L858R/T790M (Homo sapiens (Human), UniProt P00533, L858R/T790M). Nature of the assay: HTRF-based EGFR biochemical assay (L858R/T790M). The note with it: 100 μM ATP, enzyme 0.02 nM. On the procedure:
as §1, §2

Assay [1] has as its system EGFR mutant L858R/T790M Ba/F3 cells. Nature of the assay: Ba/F3 cell proliferation model (Cell Titer Glo), EGFR L858R/T790M. In kind it is cell-based, murine. The note with it: 72 hours. The text has this:
Example 26: Ba/F3 Cell Proliferation Models
The EGFR mutant L858R and L858R/T790M Ba/F3 cells have been previously described (Zhou, W., et al. Nature 462, 2009, 1070-1074). All cell lines were maintained in RPM 1640 (Cellgro; Mediatech Inc., Herndon. CA) supplemented with 10% FBS, 100 units/mL penicillin, 100 units/mL streptomycin. The EGFR I941R mutation was introduced via site directed mutagenesis using the Quick Change Site-Directed Mutagenesis kit (Stratagene; La Jolla, CA) according to the manufacturer's instructions. All constructs were confirmed by DNA sequencing. The constructs were shuttled into the retroviral vector JP1540 using the Cre-recombination system (Agilent Technologies, Santa Clara, CA). Ba/F3 cells were then infected with retrovirus per standard protocols, as described previously (Zhou, et al, Nature 2009). Stable clones were obtained by selection in puromycin (2 μg/ml).
Growth and inhibition of growth was assessed by the Cell Titer Glo® assay (Promega, Madison, WI) and was performed according to the manufacturer's instructions. The Cell Titer Glo® assay is a luminescence-based method used to determine the number of viable cells based on quantitation of the ATP present, which is directly proportional to the amount of metabolically active cells present. Ba/F3 cells of different EGFR genotypes were exposed to compounds as a single agent or in combination with 1 μg/mL cetuximab for 72 hours and the number of cells used per experiment was determined empirically as has been previously established (Zhou, et al., Nature 2009). All experimental points were set up in triplicates in 384-well plates and all experiments were repeated at least three times. […] The curves were fitted using a non-linear regression model with a sigmoidal dose response.
(Cellular ATP, detected with luciferase, serves as a proxy for viable cell number.)

Setting [2] is: Mus musculus, BaF3, single agent, read-out: Cell IC50 BaF3 EGFR L858R/T790M.
The mark [3] stands for this setting: in combination with 1 μg/mL cetuximab, read-out: Cell IC50 BaF3 EGFR L858R/T790M (+cetux.).

Chain of EGFR L858R (P00533 25-1210 L858R): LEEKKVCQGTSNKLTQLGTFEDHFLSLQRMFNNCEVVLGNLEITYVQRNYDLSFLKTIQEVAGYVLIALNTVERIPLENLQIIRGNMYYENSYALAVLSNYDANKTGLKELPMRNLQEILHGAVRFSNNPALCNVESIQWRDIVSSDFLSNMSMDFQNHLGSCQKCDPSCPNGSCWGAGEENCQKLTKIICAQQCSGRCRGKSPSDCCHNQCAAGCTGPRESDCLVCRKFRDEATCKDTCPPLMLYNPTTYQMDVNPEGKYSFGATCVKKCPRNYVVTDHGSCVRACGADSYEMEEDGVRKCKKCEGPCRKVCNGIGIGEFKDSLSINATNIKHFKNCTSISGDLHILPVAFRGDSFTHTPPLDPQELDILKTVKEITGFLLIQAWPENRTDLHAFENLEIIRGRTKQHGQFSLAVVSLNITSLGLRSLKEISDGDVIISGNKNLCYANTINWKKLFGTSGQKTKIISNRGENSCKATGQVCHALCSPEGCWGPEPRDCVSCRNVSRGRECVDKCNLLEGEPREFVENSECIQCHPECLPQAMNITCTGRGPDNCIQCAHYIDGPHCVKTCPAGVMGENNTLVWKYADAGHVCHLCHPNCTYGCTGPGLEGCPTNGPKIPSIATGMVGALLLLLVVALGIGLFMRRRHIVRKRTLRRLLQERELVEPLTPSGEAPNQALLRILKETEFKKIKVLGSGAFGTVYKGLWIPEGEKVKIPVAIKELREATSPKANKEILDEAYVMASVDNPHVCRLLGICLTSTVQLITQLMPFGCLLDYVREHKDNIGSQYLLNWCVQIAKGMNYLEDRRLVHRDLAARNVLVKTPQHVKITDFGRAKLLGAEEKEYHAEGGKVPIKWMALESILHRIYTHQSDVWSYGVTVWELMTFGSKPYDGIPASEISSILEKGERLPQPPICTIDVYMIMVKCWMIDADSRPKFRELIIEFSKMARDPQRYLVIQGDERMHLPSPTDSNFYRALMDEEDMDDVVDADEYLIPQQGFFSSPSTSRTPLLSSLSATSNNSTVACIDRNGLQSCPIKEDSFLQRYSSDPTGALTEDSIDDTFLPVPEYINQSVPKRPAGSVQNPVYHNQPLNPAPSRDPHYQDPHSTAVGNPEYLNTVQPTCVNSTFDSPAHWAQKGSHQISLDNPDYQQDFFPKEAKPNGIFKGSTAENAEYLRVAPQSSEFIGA
Chain of EGFR L858R/T790M (P00533 25-1210 T790M/L858R): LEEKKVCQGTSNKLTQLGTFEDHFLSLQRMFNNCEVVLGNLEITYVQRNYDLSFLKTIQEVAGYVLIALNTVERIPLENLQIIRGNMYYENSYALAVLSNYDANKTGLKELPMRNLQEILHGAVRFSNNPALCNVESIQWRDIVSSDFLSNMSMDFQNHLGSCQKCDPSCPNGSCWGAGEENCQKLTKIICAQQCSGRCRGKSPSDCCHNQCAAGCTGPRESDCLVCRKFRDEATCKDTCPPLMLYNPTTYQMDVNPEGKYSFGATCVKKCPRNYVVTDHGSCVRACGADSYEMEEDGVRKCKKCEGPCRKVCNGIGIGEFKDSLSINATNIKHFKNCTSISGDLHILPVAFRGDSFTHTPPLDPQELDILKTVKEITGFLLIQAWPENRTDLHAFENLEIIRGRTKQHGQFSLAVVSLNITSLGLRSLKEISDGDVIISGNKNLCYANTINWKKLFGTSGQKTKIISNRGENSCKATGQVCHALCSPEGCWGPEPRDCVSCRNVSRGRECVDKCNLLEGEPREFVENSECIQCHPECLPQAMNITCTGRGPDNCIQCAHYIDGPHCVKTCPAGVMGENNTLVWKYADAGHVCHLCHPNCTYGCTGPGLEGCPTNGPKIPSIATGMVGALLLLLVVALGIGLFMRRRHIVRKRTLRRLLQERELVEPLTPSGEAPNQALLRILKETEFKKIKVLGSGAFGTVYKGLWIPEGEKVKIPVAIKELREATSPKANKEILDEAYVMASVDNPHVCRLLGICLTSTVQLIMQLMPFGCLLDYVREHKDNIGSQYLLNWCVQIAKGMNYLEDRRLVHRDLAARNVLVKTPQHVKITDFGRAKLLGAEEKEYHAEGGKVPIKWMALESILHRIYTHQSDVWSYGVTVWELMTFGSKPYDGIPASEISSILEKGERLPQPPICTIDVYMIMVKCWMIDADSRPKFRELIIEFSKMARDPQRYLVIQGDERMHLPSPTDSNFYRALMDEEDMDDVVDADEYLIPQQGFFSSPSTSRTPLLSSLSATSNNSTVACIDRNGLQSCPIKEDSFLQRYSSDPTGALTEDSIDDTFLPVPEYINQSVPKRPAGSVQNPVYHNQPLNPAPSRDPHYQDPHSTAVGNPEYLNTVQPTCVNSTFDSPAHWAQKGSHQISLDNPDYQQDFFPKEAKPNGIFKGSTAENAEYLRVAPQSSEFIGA

Take `CN1CCC(c2ccc(-c3ccc4c(c3)C(=O)N(C(c3nc5ccccc5[nH]3)c3n[nH]c5c3CCC5)C4)cc2)CC1` (stereo not shown) [Compound 033, 2-[1H-Benzimidazol-2-yl(1,4,5,6-tetrahydrocyclopenta[c]pyrazol-3-yl)methyl]-6-[4-(1-methyl-4-piperidyl)phenyl]isoindolin-1-one]: the IC50 against EGFR L858R came out at 24 nM; against EGFR L858R/T790M it was 6 nM; in assay [1] (setting [2]) it was 5230 nM; in assay [1] (setting [3]), 340 nM.

Turning to `CN1CCC(c2ccc(-c3ccc4c(c3)C(=O)N(C(c3cccc(F)c3)c3nc5cccnc5[nH]3)C4)cc2)CC1` (stereo not shown) [Compound 025], the IC50 against EGFR L858R is 150 nM; at EGFR L858R/T790M, 11 nM; in assay [1] (setting [2]) it was 3050 nM; in assay [1] (setting [3]), 180 nM.

As for `CN1CCC(c2ccc(-c3ccc4c(c3)C(=O)N(C(c3nc5cncnc5[nH]3)c3cc(F)ccc3O)C4)cc2)CC1` (stereo not shown) [Compound 018, 2-[(5-Fluoro-2-hydroxy-phenyl)-(9H-purin-8-yl)methyl]-6-[4-(1-methyl-4-piperidyl)phenyl]isoindoiin-1-one; hydrochloride], the IC50 at EGFR L858R was determined as 9 nM; against EGFR L858R/T790M, 5 nM; in assay [1] (setting [2]), 3490 nM; in assay [1] (setting [3]), 20 nM.

Consider `Nc1ccc(C#Cc2ccc3c(c2)C(=O)N(C(c2nc4ccccc4[nH]2)c2cc(F)ccc2O)C3)cn1` (stereo not shown) [Compound 012, 6-[2-(6-Amino-3-pyridyl)ethynyl]-2-[1H-benzimidazol-2-yl-(5-fluoro-2-hydroxy-phenyl)methyl]isoindolin-1-one], for which the IC50 against EGFR L858R is 48 nM; against EGFR L858R/T790M it was 6 nM; in assay [1] (setting [2]), 620 nM; in assay [1] (setting [3]) it was 10 nM.

With `CN1CCC(c2ccc(-c3ccc4ncn(C(c5cccc(F)c5)c5nc6ccccc6[nH]5)c(=O)c4n3)cc2)CC1` (stereo not shown) [Compound 008, 3-((1H-Benzo[d]imidazol-2-yl)(3-fluorophenyl)methyl)-6-(4-(1-methylpiperidin-4-yl)phenyl)-pyrido[3,2-d]pyrimidin-4(3H)-one 2,2,2-trifluoroacetate], the IC50 was found to be 42 nM at EGFR L858R, 5 nM against EGFR L858R/T790M, 5410 nM in assay [1] (setting [2]) and 170 nM in assay [1] (setting [3]).

Regarding `CN1CC(Oc2ccc(-c3ccc4c(c3)C(=O)N(C(c3nc5ccccc5[nH]3)c3cc(F)ccc3O)C4)cc2)C1` (stereo not shown) [Compound 056, 2-[1H-benzimidazol-2-yl-(5-fluoro-2-hydroxy-phenyl)methyl]-6-[4-(1-methylazetidin-3-yl)oxyphenyl]isoindolin-1-one;dihydrochloride], the IC50 came to 12 nM at EGFR L858R, 8 nM against EGFR L858R/T790M, 1280 nM in assay [1] (setting [2]) and 10 nM in assay [1] (setting [3]).

As for `CN1CCC(c2ccc(-c3ccc4c(c3)C(=O)N(C(c3nc5nccnc5[nH]3)c3cc(F)ccc3O)C4)cc2)CC1` (stereo not shown) [Compound 019, 2-[(5-Fluoro-2-hydroxy-phenyl)-(1H-imidazo[4,5-b]pyrazin-2-yl)methyl]-6-[4-(1-methyl-4-piperidyl)phenyl]isoindolin-1-one; hydrochloride], the IC50 on EGFR L858R was 4 nM; against EGFR L858R/T790M, 1 nM; in assay [1] (setting [2]) it was 1870 nM; in assay [1] (setting [3]) it was 10 nM.

Consider `CN1CCC(c2ccc(-c3ccc4ncn(C(c5ccccc5)c5nc6ccccc6[nH]5)c(=O)c4c3)cc2)CC1` (stereo not shown) [Compound 002, 3-[1H-Benzimidazol-2-yl(phenyl)methyl]-6-[4-(1-methyl-4-piperidyl)phenyl]quinazolin-4-one], for which the IC50 turned out to be 17 nM against EGFR L858R, 4 nM against EGFR L858R/T790M, 4450 nM in assay [1] (setting [2]) and 140 nM in assay [1] (setting [3]).

For the compound `[2H]C(c1nc2ccccc2[nH]1)(c1cc(F)ccc1O)N1Cc2ccc(-c3ccc(C4CCN(C)CC4)cc3)cc2C1=O` (stereo not shown) [Compound 036, 2-((1H-benzo[d]imidazol-2-yl)(5-fluoro-2-hydroxyphenyl)methyl-d)-6-(4-(1-methylpiperidin-4-yl)phenyl)isoindolin-1-one], the IC50 came out at 2.6 nM on EGFR L858R, 0.7 nM at EGFR L858R/T790M, 170 nM in assay [1] (setting [2]) and 7 nM in assay [1] (setting [3]).

On to `CN1CCC(c2ccc(-c3ccc4c(n3)C(=O)N(C(c3nc5ccccc5[nH]3)c3cc(F)ccc3O)C4)cc2)CC1` (stereo not shown) [Compound 028, 6-[1H-Benzimidazol-2-yl-(5-fluoro-2-hydroxy-phenyl)methyl]-2-[4-(1-methyl-4-piperidyl)phenyl]-5H-pyrrolo[3,4-b]pyridin-7-one], for which the IC50 is 2 nM against EGFR L858R, 0.3 nM at EGFR L858R/T790M, 1360 nM in assay [1] (setting [2]) and 30 nM in assay [1] (setting [3]).

Regarding `COc1ccc2[nH]c(C(c3cc(F)ccc3O)N3Cc4ccc(-c5ccc(C6CCN(C)CC6)cc5)cc4C3=O)nc2c1` (stereo not shown) [Compound 048, 2-[(5-fluoro-2-hydroxy-phenyl)-(5-methoxy-1H-benzimidazol-2-yl)methyl]-6-[4-(1-methyl-4-piperidyl)phenyl]isoindolin-1-one; formic acid], the IC50 against EGFR L858R stood at 35 nM; against EGFR L858R/T790M, 4 nM; in assay [1] (setting [2]) it was 4760 nM; in assay [1] (setting [3]) it was 760 nM.

In the case of `Cn1cc(-c2ccc(-c3ccc4c(c3)C(=O)N(C(c3nc5ccccc5[nH]3)c3cc(F)ccc3O)C4)cc2)cn1` (stereo not shown) [Compound 058, 2-[1H-benzimidazol-2-yl-(5-fluoro-2-hydroxy-phenyl)-methyl]-6-[4-(1-methylpyrazol-4-yl)phenyl]isoindolin-1-one; dihydrochloride], the IC50 on EGFR L858R is 67 nM; against EGFR L858R/T790M, 12 nM; in assay [1] (setting [2]), 1420 nM; in assay [1] (setting [3]), 20 nM.

In the case of `CN1CCC(c2ccc(-c3ccc4c(=O)n(C(c5nc6ccccc6[nH]5)c5cc(F)ccc5O)cc(F)c4c3)cc2)CC1` (stereo not shown) [Compound 053, 2-[1H-benzimidazol-2-yl-(5-fluoro-2-hydroxy-phenyl)-methyl]-4-fluoro-6-[4-(1-methyl-4-piperidyl)phenyl]isoquinolin-1-one; hydrochloride], the IC50 was found to be 6 nM on EGFR L858R, 1 nM at EGFR L858R/T790M, 560 nM in assay [1] (setting [2]) and 5 nM in assay [1] (setting [3]).

`CN1CCC(c2ccc(-c3ccc4ncn(C(c5ccccc5)c5nc6ccccc6[nH]5)c(=O)c4c3F)cc2)CC1` (stereo not shown) [Compound 003, 3-((1H-Benzo[d]imidazol-2-yl)(phenyl)methyl)-5-fluoro-6-(4-(1-methylpiperidin-4-yl)phenyl)quinazolin-4(3H)-one 2,2,2-trifluoroacetate]: the IC50 on EGFR L858R worked out at 9 nM; against EGFR L858R/T790M, 2 nM; in assay [1] (setting [2]), 1400 nM; in assay [1] (setting [3]), 50 nM.

Turning to `CN(C)CCOc1ccc(-c2ccc3c(c2)C(=O)N(C(c2nc4ccccc4[nH]2)c2cc(F)ccc2O)C3)cc1` (stereo not shown) [Compound 040, 2-[1H-benzimidazol-2-yl-(5-fluoro-2-hydroxy-phenyl)methyl]-6-[4-[2-(dimethyl-amino)ethoxy]phenyl]isoindolin-1-one;hydrochloride], the IC50 against EGFR L858R is 7 nM; at EGFR L858R/T790M, 2 nM; in assay [1] (setting [2]) it was 1570 nM; in assay [1] (setting [3]), 10 nM.

As for `CN(C)CCN(C)c1ccc(-c2ccc3c(c2)C(=O)N(C(c2nc4ccccc4[nH]2)c2cc(F)ccc2O)C3)cc1` (stereo not shown) [Compound 041, 2-[1H-benzimidazol-2-yl-(5-fluoro-2-hydroxy-phenyl)-methyl]-6-[4-[2-(dimethylamino)-ethyl-methyl-amino]phenyl]-isoindolin-1-one; hydrochloride], the IC50 on EGFR L858R was found to be 5 nM; against EGFR L858R/T790M, 2 nM; in assay [1] (setting [2]), 950 nM; in assay [1] (setting [3]), 20 nM.
